Results as given in patent US5071859A, “N-substituted azaheterocyclic carboxylic acids and pharmaceutical uses” (priority 1988, dated 1991).
Structures can show the parent of a compound that is named as a salt.

Tested on: [^3 H]-GABA uptake
Assay: in vitro inhibition of [^3 H]-GABA uptake (method of Fjalland)
Type: biochemical, Male Wistar rat (cortical tissue)
Settings: rat cortical tissue homogenate; 60 min at 30° C.; pH 7.5; ligand 0.2 nM
Experimental: Male Wistar rat cortical tissue was gently homogenized by hand using a glass/PTFE homogenizer in 10 volumes of 0.32 M sucrose. Incubation was performed in a 40 mM tris HCl buffer (pH 7.5 at 30° C.) containing […], […], 4 mM MgSO4, 2.3 mM CaCl2 and 10 mM glucose, for 60 min. at 30° C. Ligand concentration was 0.2 nM.

| IC50 | Compound |
| --- | --- |
| 104 nM | O=C(O)[C@@H]1CCCN(CCOC=C(c2ccccc2)c2ccccc2)C1 [Example 2, (R)-1-[2-[[2,2-Diphenylethenyl]oxy]ethyl]-3-piperidine carboxylic acid hydrochloride] |
| 8 nM | Cc1ccsc1C(=COCCN1CCC[C@@H](C(=O)O)C1)c1sccc1C [Example 12, (R)-1-[2-[[2,2-bis(3-Methyl-2-thienyl)ethenyl]oxy]ethyl]-3-piperidine carboxylic acid] |
| 26 nM | Cc1ccccc1C(=COCCN1CCC=C(C(=O)O)C1)c1ccccc1C [Example 13, 1-[2-[[2,2-bis(2-Methylphenyl)ethenyl]oxy]ethyl]-1,2,5,6-tetrahydro-3-pyridine carboxylic acid hydrochloride] |
| 30 nM | Cc1ccccc1C(=COCCN1CCC[C@@H](C(=O)O)C1)c1ccc(F)cc1C [Example 14, (R)-1-[2-[[2-(4-Fluoro-2-methylphenyl)-2-(2-methylphenyl)ethenyl]oxy]ethyl]-3-piperidine carboxylic acid hydrochloride] |
| 15 nM | Cc1ccccc1C(=COCCN1CCC[C@@H](C(=O)O)C1)c1ccccc1C [Example 17, (R)-1-[2-[[2,2-bis(2-Methylphenyl)ethenyl]oxy]ethyl]-3-piperidine carboxylic acid hydrochloride] |
| 47 nM | CCc1ccccc1C(=COCCN1CCC=C(C(=O)O)C1)c1ccccc1CC [Example 23, 1-[2-[[2,2-bis(2-Ethylphenyl)ethenyl]oxy]ethyl]-1,2,5,6-tetrahydro-3-pyridine carboxylic acid hydrochloride] |
| 12 nM | Cc1ccccc1C(=COCCN1CCC[C@@H](C(=O)O)C1)c1ccccc1Cl [Example 30, (R)-1-[2-[[2-(2-Chlorophenyl)-2-(2-methylphenyl)ethenyl]oxy]ethyl]-3-piperidine carboxylic acid hydrochloride] |
| 127 nM | O=C(O)[C@@H]1CCCN(CCOCC(c2ccccc2)c2ccccc2)C1 [Example 33, (R)-1-[2-[[2,2-Diphenylethyl]oxy]ethyl]-3-piperidine carboxylic acid] |

Tested on: GABA uptake from the synaptic cleft into presynaptic nerve terminals and glial cells
Assay: not given
Settings: cited from earlier work

| Compound | inhibitor of GABA uptake from the synaptic cleft |
| --- | --- |
| O=C(O)C1CCCNC1 (stereo not shown) [nipecotic acid, piperidine-3-carboxylic acid] | potent inhibitor of GABA uptake |

Tested on: GABA uptake
Assay: not given
Settings: oral; cited from earlier work

| Compound | orally active inhibitors of GABA uptake |
| --- | --- |
| O=C(O)C1CCCN(CCC=C(c2ccccc2)c2ccccc2)C1 (stereo not shown) [SK&F 89976A, N-(4,4-diphenyl-3-butenyl)nipecotic acid] | orally active inhibitors of GABA uptake |
| O=C(O)C1=CCCN(CCC=C(c2ccccc2)c2ccccc2)C1 [SK&F 100330A, N-(4,4-diphenyl-3-butenyl)guvacine] | orally active inhibitors of GABA uptake |
| O=C(O)CC1CCN(CCC=C(c2ccccc2)c2ccccc2)C1 (stereo not drawn) [SK&F 100561, N-(4,4-diphenyl-3-butenyl)homo-β-proline] | orally active inhibitors of GABA uptake |
| O=C(O)C1CCCN(CCC=C(c2ccccc2)c2cccs2)C1 (stereo not shown) [SK&F 100604J, N-(4-phenyl-4-(2-thienyl)-3-butenyl)nipecotic acid] | orally active inhibitors of GABA uptake |
